Measurements as given in US20250388589A1, “TRICYCLIC HETEROCYCLIC DERIVATIVES, COMPOSITIONS AND USES THEREOF” (Danatlas Pharmaceuticals Co., Ltd., priority 2022, published 2025).

Columns and labels:
[1] = system: Kuramochi cell line; assay: Cell Viability Assay (Cell Titer-Glo, 7 days); format: cell-based; settings: 168 h, Kuramochi cells, 7 days incubation, read-out: PARG Cell viability (IC50)
Outline: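 Kuramochi cells in RPMI with 10% FBS, seeded at 400 cells/well, were treated with a 9-point 3-fold dilution series in duplicate for 7 days at 37 °C, 5% CO2. Viability by CellTiter-Glo luminescence, normalised to DMSO and medium-only controls; IC50 from 4-parameter Hill fit.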

[2] = target: hPARG (C-terminal His6-tag) (Homo sapiens (Human), UniProt Q86W56); assay: PARG Enzymatic Activity Assay (HTRF); format: biochemical; settings: hPARG 65 pM final, biotinylated-NAD ribosylated PARP1 8 nM final
Chain of hPARG (C-terminal His6-tag) (Q86W56 whole entry): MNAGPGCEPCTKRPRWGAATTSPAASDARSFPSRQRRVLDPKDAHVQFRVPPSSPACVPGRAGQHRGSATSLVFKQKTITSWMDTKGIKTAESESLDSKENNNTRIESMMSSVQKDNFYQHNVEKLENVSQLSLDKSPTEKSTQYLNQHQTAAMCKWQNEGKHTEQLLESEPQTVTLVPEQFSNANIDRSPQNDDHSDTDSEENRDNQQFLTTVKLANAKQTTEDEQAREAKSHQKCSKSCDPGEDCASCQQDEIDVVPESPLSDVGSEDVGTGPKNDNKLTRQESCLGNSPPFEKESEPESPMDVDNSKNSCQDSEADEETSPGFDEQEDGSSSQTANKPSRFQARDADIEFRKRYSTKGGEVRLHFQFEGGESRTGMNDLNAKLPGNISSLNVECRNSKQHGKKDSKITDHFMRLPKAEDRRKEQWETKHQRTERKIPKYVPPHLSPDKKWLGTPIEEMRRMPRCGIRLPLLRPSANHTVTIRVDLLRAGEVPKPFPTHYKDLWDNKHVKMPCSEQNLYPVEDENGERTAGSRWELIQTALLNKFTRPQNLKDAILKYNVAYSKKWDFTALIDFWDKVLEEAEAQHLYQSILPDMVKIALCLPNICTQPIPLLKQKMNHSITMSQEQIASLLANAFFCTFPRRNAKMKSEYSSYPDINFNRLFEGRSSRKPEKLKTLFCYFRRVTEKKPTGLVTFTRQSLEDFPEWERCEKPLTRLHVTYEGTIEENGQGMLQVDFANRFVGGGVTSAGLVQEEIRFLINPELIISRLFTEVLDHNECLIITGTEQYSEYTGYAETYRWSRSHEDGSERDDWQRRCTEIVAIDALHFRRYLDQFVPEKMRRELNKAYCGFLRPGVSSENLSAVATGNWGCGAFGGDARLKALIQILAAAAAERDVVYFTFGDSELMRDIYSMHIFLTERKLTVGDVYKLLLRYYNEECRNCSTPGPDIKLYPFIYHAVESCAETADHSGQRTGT
Outline: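 E. coli-expressed enzyme (65 pM final) preincubated 60 min RT with compounds (10-point 4-fold dilution, duplicate) in 50 mM Tris pH 7.4, 3 mM EDTA, 1 mM DTT, 50 mM KCl, 0.01% Tween 20. Biotinylated-NAD ribosylated PARP1 substrate (8 nM final) reacted 10 min RT; Eu-streptavidin/anti-6HIS-XL665 HTRF read 665/620 nm after 60 min. IC50 from 4-parameter Hill fit.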

Compound	IC50 [1] [nM]	IC50 [2] [nM]
CCCN1CCN(c2ncnc3c2c2ccc(S(=O)(=O)NC4(C#N)CC4)cc2n3-c2nnc(C(F)F)s2)C[C@@H]1C [Example 157, (S)-N-(1-cyanocyclopropyl)-9-(5-(difluoromethyl)-1,3,4-thiadiazol-2-yl)-4-(3-methyl-4-propylpiperazin-1-yl)-9H-pyrimido[4,5-b]indole-7-sulfonamide]	< 100	< 100
CC(C)C(=O)N1CCC(c2ncnc3c2c2ccc(S(=O)(=O)NC4(C#N)CC4)cc2n3-c2nnc(C(F)F)s2)CC1 [Example 76, N-(1-Cyanocyclopropyl)-9-(5-(difluoromethyl)-1,3,4-thiadiazol-2-yl)-4-(1-isobutyrylpiperidin-4-yl)-9H-pyrimido[4,5-b]indole-7-sulfonamide]	< 100	< 100
CC1(C(=O)N2CCN(c3ncnc4c3c3ccc(S(=O)(=O)NC5(C#N)CC5)cc3n4-c3nnc(C(F)F)s3)CC2)CCC1 [Example 4, N-(1-Cyanocyclopropyl)-9-(5-(difluoromethyl)-1,3,4-thiadiazol-2-yl)-4-(4-(1-methylcyclobutane-1-carbonyl)piperazin-1-yl)-9H-pyrimido[4,5-b]indole-7-sulfonamide]	100 to 1000	< 100
N#CC1(NS(=O)(=O)c2ccc3c4c(N5CCN(C(=O)C6(F)CCC6)CC5)ncnc4n(-c4nnc(C(F)F)s4)c3c2)CC1 [Example 68, N-(1-Cyanocyclopropyl)-9-(5-(difluoromethyl)-1,3,4-thiadiazol-2-yl)-4-(4-(1-fluorocyclobutane-1-carbonyl)piperazin-1-yl)-9H-pyrimido[4,5-b]indole-7-sulfonamide]	100 to 1000	< 100
N#CC1(NS(=O)(=O)c2ccc3c4c(N5CCN(c6cccnn6)CC5)ncnc4n(-c4nnc(C(F)F)s4)c3c2)CC1 [Example 19, N-(1-Cyanocyclopropyl)-9-(5-(difluoromethyl)-1,3,4-thiadiazol-2-yl)-4-(4-(pyridazin-3-yl)piperazin-1-yl)-9H-pyrimido[4,5-b]indole-7-sulfonamide]	100 to 1000	< 100
N#CC1(NS(=O)(=O)c2ccc3c4c(C5CCN(C(=O)[C@@H]6CCOC6)CC5)ncnc4n(-c4nnc(C(F)F)s4)c3c2)CC1 [Example 116, (R)-N-(1-cyanocyclopropyl)-9-(5-(difluoromethyl)-1,3,4-thiadiazol-2-yl)-4-(1-(tetrahydrofuran-3-carbonyl)piperidin-4-yl)-9H-pyrimido[4,5-b]indole-7-sulfonamide]	< 100	< 100
COC1(C(F)(F)F)CCN(c2ncnc3c2c2ccc(S(=O)(=O)NC4(C#N)CC4)cc2n3-c2nnc(C(F)F)s2)CC1 [Example 47, N-(1-Cyanocyclopropyl)-9-(5-(difluoromethyl)-1,3,4-thiadiazol-2-yl)-4-(4-methoxy-4-(trifluoromethyl)piperidin-1-yl)-9H-pyrimido[4,5-b]indole-7-sulfonamide]	100 to 1000	< 100
CN(CC(F)(F)F)C(=O)N1CCN(c2ncnc3c2c2ccc(S(=O)(=O)NC4(C#N)CC4)cc2n3-c2nnc(C(F)F)s2)CC1 [Example 42, 4-(7-(N-(1-Cyanocyclopropyl)sulfamoyl)-9-(5-(difluoromethyl)-1,3,4-thiadiazol-2-yl)-9H-pyrimido[4,5-b]indol-4-yl)-N-methyl-N-(2,2,2-trifluoroethyl)piperazine-1-carboxamide]	< 100	< 100
N#CC1(NS(=O)(=O)c2ccc3c4c(N5CCc6cc(CO)cnc6C5)ncnc4n(-c4nnc(C(F)F)s4)c3c2)CC1 [Example 181, N-(1-Cyanocyclopropyl)-9-(5-(difluoromethyl)-1,3,4-thiadiazol-2-yl)-4-(3-(hydroxymethyl)-5,8-dihydro-1,7-napthyridin-7(6H)-yl)-9H-pyrimido[4,5-b]indole-7-sulfonamide]	100 to 1000	< 100
N#CC1(NS(=O)(=O)c2ccc3c4c(C5=CCOCC5)ncnc4n(-c4nnc(C(F)F)s4)c3c2)CC1 [Example 78, N-(1-Cyanocyclopropyl)-9-(5-(difluoromethyl)-1,3,4-thiadiazol-2-yl)-4-(3,6-dihydro-2H-pyran-4-yl)-9H-pyrimido[4,5-b]indole-7-sulfonamide]	100 to 1000	< 100
COCCN1CCN(c2ncnc3c2c2ccc(S(=O)(=O)NC4(C#N)CC4)cc2n3-c2nnc(C(F)F)s2)C[C@@H]1C [Example 178, (S)-N-(1-cyanocyclopropyl)-9-(5-(difluoromethyl)-1,3,4-thiadiazol-2-yl)-4-(4-(2-methoxyethyl)-3-methylpiperazin-1-yl)-9H-pyrimido[4,5-b]indole-7-sulfonamide]	< 100	< 100
CN1CCC[C@@H]1C(=O)N1CCC(c2ncnc3c2c2ccc(S(=O)(=O)NC4(C#N)CC4)cc2n3-c2nnc(C(F)F)s2)CC1 [Example 104, N-(1-Cyanocyclopropyl)-9-(5-(difluoromethyl)-1,3,4-thiadiazol-2-yl)-4-(1-(methyl-D-prolyl)piperidin-4-yl)-9H-pyrimido[4,5-b]indole-7-sulfonamide]	100 to 1000	< 100
C[C@H](O)C(=O)N1CCC(c2ncnc3c2c2ccc(S(=O)(=O)NC4(C#N)CC4)cc2n3-c2nnc(C(F)F)s2)CC1 [Example 106, (S)-N-(1-Cyanocyclopropyl)-9-(5-(difluoromethyl)-1,3,4-thiadiazol-2-yl)-4-(1-(2-hydroxypropanoyl)piperidin-4-yl)-9H-pyrimido[4,5-b]indole-7-sulfonamide]	< 100	< 100
N#CC1(NS(=O)(=O)c2ccc3c4c(N5CCN(C(=O)C6CC6)CC5)ncnc4n(-c4nnc(C(F)(F)F)s4)c3c2)CC1 [Example 188, N-(1-Cyanocyclopropyl)-4-(4-(cyclopropanecarbonyl)piperazin-1-yl)-9-(5-(trifluoromethyl)-1,3,4-thiadiazol-2-yl)-9H-pyrimido[4,5-b]indole-7-sulfonamide]	100 to 1000	< 100
CC(C)C(=O)N1CCC(c2ccnc3c2c2ccc(S(=O)(=O)NC4(C#N)CC4)cc2n3-c2nnc(C(F)F)s2)CC1 [Example 197, N-(1-Cyanocyclopropyl)-9-(5-(difluoromethyl)-1,3,4-thiadiazol-2-yl)-4-(1-isobutyrylpiperidin-4-yl)-9H-pyrido[2,3-b]indole-7-sulfonamide]	100 to 1000	< 100
CN(C)C1CCN(c2ncnc3c2c2ccc(S(=O)(=O)NC4(C#N)CC4)cc2n3-c2nnc(C(F)F)s2)C[C@@H]1F (stereo partly drawn) [Example 175, N-(1-cyanocyclopropyl)-9-(5-(difluoromethyl)-1,3,4-thiadiazol-2-yl)-4-((3S)-4-(dimethylamino)-3-fluoropiperidin-1-yl)-9H-pyrimido[4,5-b]indole-7-sulfonamide]	< 100	< 100
CC(C)S(=O)(=O)N1CCC(c2ncnc3c2c2ccc(S(=O)(=O)NC4(C#N)CC4)cc2n3-c2nnc(C(F)F)s2)CC1 [Example 123, N-(1-Cyanocyclopropyl)-9-(5-(difluoromethyl)-1,3,4-thiadiazol-2-yl)-4-(1-(isopropylsulfonyl)piperidin-4-yl)-9H-pyrimido[4,5-b]indole-7-sulfonamide]	< 100	< 100
C[C@H]1CN(c2ncnc3c2c2cc(F)c(S(=O)(=O)NC4(C)CC4)cc2n3-c2nnc(C(F)F)s2)CCN1C(=O)N(C)C [Example 102, (S)-4-(9-(5-(Difluoromethyl)-1,3,4-thiadiazol-2-yl)-6-fluoro-7-(N-(1-methylcyclopropyl)sulfamoyl)-9H-pyrimido[4,5-b]indol-4-yl)-N,N,2-trimethylpiperazine-1-carboxamide]	< 100	< 100
C[C@@H]1CN(c2ncnc3c2c2ccc(S(=O)(=O)NC4(C#N)CC4)cc2n3-c2nnc(C(F)F)s2)C[C@H](C)N1C(=O)C1CC1 [Example 29, N-(1-Cyanocyclopropyl)-4-((3S,5R)-4-(cyclopropanecarbonyl)-3,5-dimethylpiperazin-1-yl)-9-(5-(difluoromethyl)-1,3,4-thiadiazol-2-yl)-9H-pyrimido[4,5-b]indole-7-sulfonamide]	< 100	< 100
CC(C)(N)C(=O)N1CCC(c2ncnc3c2c2ccc(S(=O)(=O)NC4(C#N)CC4)cc2n3-c2nnc(C(F)F)s2)CC1 [Example 126, 4-(1-(2-Amino-2-methylpropanoyl)piperidin-4-yl)-N-(1-cyanocyclopropyl)-9-(5-(difluoromethyl)-1,3,4-thiadiazol-2-yl)-9H-pyrimido[4,5-b]indole-7-sulfonamide]	100 to 1000	< 100
CC1(C(=O)N2CC3CN(c4ncnc5c4c4ccc(S(=O)(=O)NC6(C#N)CC6)cc4n5-c4nnc(C(F)F)s4)CC3C2)CC1 (centres unmarked) [Example 36, N-(1-Cyanocyclopropyl)-9-(5-(difluoromethyl)-1,3,4-thiadiazol-2-yl)-4-(5-(1-methylcyclopropane-1-carbonyl)hexahydropyrrolo[3,4-c]pyrrol-2(1H)-yl)-9H-pyrimido[4,5-b]indole-7-sulfonamide]	100 to 1000	< 100
N#CC1(NS(=O)(=O)c2ccc3c4c(N5CCN6CCOC[C@@H]6C5)ncnc4n(-c4nnc(C(F)F)s4)c3c2)CC1 [Example 162, (S)-N-(1-cyanocyclopropyl)-9-(5-(difluoromethyl)-1,3,4-thiadiazol-2-yl)-4-(hexahydropyrazino[2,1-c][1,4]oxazin-8(1H)-yl)-9H-pyrimido[4,5-b]indole-7-sulfonamide]	< 100	< 100
